{"source": "patent US8906855B2", "about": "“Methods and compositions for treating conditions related to lack of blood supply, shock and neuronal injuries” (Vivacelle Bio, Inc., priority 2007, dated 2014)", "key": {"[1]": {"settings": "Battion et al. 1968; cited from earlier work"}, "[2]": {"settings": "1 atm; from The Engineering Toolbox; cited from earlier work"}, "[3]": {"assay": "Nitric oxide uptake/content of the emulsion by mass spectrometry", "settings": "equilibrated 60 minutes with 100 ppm nitric oxide in helium; ten samples", "description": "Some samples (1 ml each) were left open to air in 2.0 ml tubes for 30 minutes prior to dissolved gas analysis. In other experiments the emulsion was placed into a 15 ml tube. The headspace was filled with the gas under study and the gas was allowed to enter the emulsion by equilibration over 60 minutes with the tube on its side to increase the gas emulsion interaction. 50 μL drawn from each of these fluids were injected into a Sievers purge vessel at 37° C. containing 36 ml of a mildly acidic solution consisting of 32 ml of 1M HCL and 4 ml of 0.5M ascorbic acid. […] Signals generated at m/z=32 upon injection of RL and lipid emulsion samples were integrated using Peakfit and compared to those obtained with distilled water.\nIn another set of experiments we measured the uptake of nitric oxide by a commercially available 20% soybean oil emulsion, Liposyn III 20%. This emulsion contains 20% soybean oil, 1.2% egg phospholipids and 2.5% glycerin in water. Using NaOH pH was adjusted to 8.3. […] 100 ppm nitric oxide in helium was used to purge the headspace for two minutes taking care not to bubble the fluid. For sixty minutes the sample was allowed to reach gas-liquid equilibrium with the tube placed on its side to maximize gas-emulsion contact. The ***nitric oxide content was measured in ten samples that were equilibrated with nitric oxide and ten samples that were equilibrated with room air."}, "[4]": {"settings": "cited from earlier work"}, "[5]": {"settings": "published value; cited from earlier work"}}, "data": [{"molecule": "O=O", "note": "[Oxygen]", "values": [{"measurement": "solubility in lipid relative to water", "setting": "[1]", "value": 4.41, "unit": "times"}]}, {"molecule": "O", "note": "[Water, water]", "values": [{"measurement": "Oxygen Content at 25° C. and Sea level Pressure", "setting": "[2]", "value": 8.3, "unit": "mg/L"}, {"measurement": "nitric oxide content, mean and standard error", "setting": "[3]", "value": "2.12×10^−3+/−0.17×10^−3"}]}, {"molecule": "[Xe]", "note": "[Xenon]", "values": [{"measurement": "minimum alveolar concentration (MAC)", "setting": "[4]; anesthetic", "value": 71, "unit": "%"}, {"measurement": "more potent than N2O as an anesthetic", "setting": "[4]; in vivo", "value": 50, "unit": "%"}]}, {"molecule": "hemoglobin", "values": [{"measurement": "oxygen release time", "setting": "[5]", "value": 17.5, "unit": "ms"}]}]}
